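Interpolation was linear, between the two tested concentrations surrounding the appropriate level; five concentrations were tested over 48 hours in 96-well plates. At the TGI there is no net growth.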
Experiments:
Experiment in all cases: NCI tumour cell line growth inhibition, 48 h
A498 renal = test system: A498 renal
A549 NSCLC = test system: A549 NSCLC
CAKI-1 renal = test system: CAKI-1 renal
CCRF-CEM leukemia = test system: CCRF-CEM leukemia
COLO 205 colon = test system: COLO 205 colon
DLD-1 colon = test system: DLD-1 colon
DMS 114 small cell lung = test system: DMS 114 small cell lung
DMS 273 small cell lung = test system: DMS 273 small cell lung
EKVX NSCLC = test system: EKVX NSCLC
HCC-2998 colon = test system: HCC-2998 colon
HCT-116 colon = test system: HCT-116 colon
HCT-15 colon = test system: HCT-15 colon
HOP-18 NSCLC = test system: HOP-18 NSCLC
HOP-62 NSCLC = test system: HOP-62 NSCLC
HOP-92 NSCLC = test system: HOP-92 NSCLC
HT29 colon = test system: HT29 colon
IGROV1 ovarian = test system: IGROV1 ovarian
K-562 leukemia = test system: K-562 leukemia
KM12 colon = test system: KM12 colon
KM20L2 colon = test system: KM20L2 colon
LOX IMVI melanoma = test system: LOX IMVI melanoma
M19-MEL melanoma = test system: M19-MEL melanoma
MALME-3M melanoma = test system: MALME-3M melanoma
MCF7 breast = test system: MCF7 breast
MOLT-4 leukemia = test system: MOLT-4 leukemia
NCI-H226 lung = test system: NCI-H226 lung
NCI-H23 lung = test system: NCI-H23 lung
NCI-H460 lung = test system: NCI-H460 lung
NCI-H522 lung = test system: NCI-H522 lung
NCI/ADR-RES ovarian = test system: NCI/ADR-RES ovarian
OVCAR-3 ovarian = test system: OVCAR-3 ovarian
OVCAR-4 ovarian = test system: OVCAR-4 ovarian
OVCAR-5 ovarian = test system: OVCAR-5 ovarian
OVCAR-8 ovarian = test system: OVCAR-8 ovarian
P388 leukemia = test system: P388 leukemia
P388/ADR leukemia = test system: P388/ADR leukemia
RPMI-8226 leukemia = test system: RPMI-8226 leukemia
RXF 393 renal = test system: RXF 393 renal
SF-268 CNS = test system: SF-268 CNS
SF-295 CNS = test system: SF-295 CNS
SF-539 CNS = test system: SF-539 CNS
SK-MEL-2 melanoma = test system: SK-MEL-2 melanoma
SK-MEL-28 melanoma = test system: SK-MEL-28 melanoma
SK-MEL-5 melanoma = test system: SK-MEL-5 melanoma
SK-OV-3 ovarian = test system: SK-OV-3 ovarian
SN12C renal = test system: SN12C renal
SN12K1 renal = test system: SN12K1 renal
SNB-19 CNS = test system: SNB-19 CNS
SNB-75 CNS = test system: SNB-75 CNS
SNB-78 CNS = test system: SNB-78 CNS
SW-620 colon = test system: SW-620 colon
U251 CNS = test system: U251 CNS
UACC-257 melanoma = test system: UACC-257 melanoma
UACC-62 melanoma = test system: UACC-62 melanoma
UO-31 renal = test system: UO-31 renal
XF 498 CNS = test system: XF 498 CNS

COc1cc2cc3c4cc(OC)c(OC)cc4cc[n+]3cc2cc1OC
TGI (A498 renal): > 100 µM | TGI (A549 NSCLC): > 100 µM | TGI (CAKI-1 renal): > 100 µM | TGI (CCRF-CEM leukemia): > 100 µM | TGI (COLO 205 colon): > 100 µM | TGI (DLD-1 colon): > 100 µM | TGI (DMS 114 small cell lung): 6.6 µM | TGI (DMS 273 small cell lung): > 100 µM | TGI (EKVX NSCLC): > 100 µM | TGI (HCC-2998 colon): > 100 µM | TGI (HCT-116 colon): > 100 µM | TGI (HCT-15 colon): > 100 µM | TGI (HOP-18 NSCLC): > 100 µM | TGI (HOP-62 NSCLC): > 100 µM | TGI (HOP-92 NSCLC): > 100 µM | TGI (HT29 colon): > 100 µM | TGI (IGROV1 ovarian): > 100 µM | TGI (K-562 leukemia): > 100 µM | TGI (KM12 colon): > 100 µM | TGI (KM20L2 colon): > 100 µM | TGI (LOX IMVI melanoma): > 100 µM | TGI (M19-MEL melanoma): > 100 µM | TGI (MALME-3M melanoma): > 100 µM | TGI (MCF7 breast): > 31.6 µM | TGI (MOLT-4 leukemia): > 96.8 µM | TGI (NCI-H226 lung): > 100 µM | TGI (NCI-H23 lung): > 100 µM | TGI (NCI-H460 lung): > 100 µM | TGI (NCI-H522 lung): > 100 µM | TGI (NCI/ADR-RES ovarian): > 100 µM | TGI (OVCAR-3 ovarian): > 73.3 µM | TGI (OVCAR-4 ovarian): > 100 µM | TGI (OVCAR-5 ovarian): > 100 µM | TGI (OVCAR-8 ovarian): > 100 µM | TGI (P388 leukemia): > 100 µM | TGI (P388/ADR leukemia): > 100 µM | TGI (RPMI-8226 leukemia): > 100 µM | TGI (RXF 393 renal): > 100 µM | TGI (SF-268 CNS): > 100 µM | TGI (SF-295 CNS): > 100 µM | TGI (SF-539 CNS): > 100 µM | TGI (SK-MEL-2 melanoma): > 100 µM | TGI (SK-MEL-28 melanoma): > 100 µM | TGI (SK-MEL-5 melanoma): > 100 µM | TGI (SK-OV-3 ovarian): > 100 µM | TGI (SN12C renal): > 100 µM | TGI (SN12K1 renal): > 100 µM | TGI (SNB-19 CNS): > 100 µM | TGI (SNB-75 CNS): > 100 µM | TGI (SNB-78 CNS): > 100 µM | TGI (SW-620 colon): > 100 µM | TGI (U251 CNS): > 100 µM | TGI (UACC-257 melanoma): > 100 µM | TGI (UACC-62 melanoma): > 100 µM | TGI (UO-31 renal): > 100 µM | TGI (XF 498 CNS): > 100 µM
